Test results from ChEMBL document CHEMBL1201862, “PubChem BioAssay data set” (2004).
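Cultured in 96-well plates, cells were exposed to test compound for 48 hours across five concentrations. GI50 marks 50% less growth.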 Calls of active or inactive are those of the source. Cut-off read from the data, not from the text of the source: active = GI50 up to about 1.1 µM and inactive = higher.

Experiments:
Assay in all cases: inhibition of tumour cell growth, NCI panel, 48 h
HOP-18 = test system: HOP-18
DMS-114 = test system: DMS-114
M19-MEL = test system: M19-MEL
SNB-78 = test system: SNB-78
LXFL 529 = test system: LXFL 529
BT-549 = test system: BT-549
Hs-578T = test system: Hs-578T
786-0 = test system: 786-0
RXF 631 = test system: RXF 631

Row | SMILES | GI50 (HOP-18) | GI50 (DMS-114) | GI50 (M19-MEL) | GI50 (SNB-78) | GI50 (LXFL 529) | GI50 (BT-549) | GI50 (Hs-578T) | GI50 (786-0) | GI50 (RXF 631)
1 | O=S(=O)(CCBr)CCBr | 15 µM (inactive) | 2.18 µM (inactive) | 2.83 µM (inactive) | – | – | – | – | – | –
2 | N#CCCN(CCC#N)c1ccc(/C=C2\N=C(c3cc([N+](=O)[O-])ccc3Cl)N(S(=O)(=O)c3ccccc3)C2=O)cc1 | 37.7 µM (inactive) | > 100 µM (inactive) | > 100 µM (inactive) | > 100 µM (inactive) | > 100 µM (inactive) | – | – | – | –
3 | CSc1ncc2c(n1)-c1ccccc1OC2NC1CC1 (stereo unspecified) | – | – | – | – | – | 38 µM (inactive) | 38.1 µM (inactive) | > 100 µM (inactive) | –
4 | COc1ccc(CNc2nc3cc(C(F)(F)F)ccc3nc2C(=O)O)cc1OC | – | – | – | – | – | 41.2 µM (inactive) | – | 32.9 µM (inactive) | –
5 | CC(=O)N1C(=O)/C(=C\C(=O)c2ccc(Cl)cc2)c2ccccc21 | – | – | – | – | – | 4.19 µM (inactive) | 19.5 µM (inactive) | 4.27 µM (inactive) | –
6 | CC(=O)O[C@H]1CC[C@@]2(C)C(=CC[C@H]3[C@@H]4C[C@H](N5CCN(C)CC5)[C@H](OC(C)=O)[C@@]4(C)CC[C@@H]32)C1 | – | – | – | – | – | 17.8 µM (inactive) | 26.2 µM (inactive) | 19.2 µM (inactive) | –
7 | Fc1nc(F)nc(-c2c3ccccc3c3n2CCS3)n1 | – | > 100 µM (inactive) | > 100 µM (inactive) | 23 µM (inactive) | 58.1 µM (inactive) | – | – | 78.5 µM (inactive) | –
8 | Cc1cc(C)c2c(c1)CC1(Cc3c(C)ccc(C)c3C1=O)C2=O (stereo unspecified) | – | – | – | – | – | > 100 µM (inactive) | > 100 µM (inactive) | – | –
9 | C1=CC=C2NCCCCCCC/N=C3/C=CC=CC=C3NCCCCCCC/N=C\2C=C1 | – | – | > 100 µM (inactive) | – | > 100 µM (inactive) | – | – | > 100 µM (inactive) | 13 µM (inactive)
10 | CN(C)CCCNC(=O)c1c(-c2cccnc2)cnc2ccccc12 | – | – | – | – | – | > 100 µM (inactive) | – | > 100 µM (inactive) | –
11 | CC(C)(CO)NC(=O)c1cccc(C(=O)NC(C)(C)CO)c1Br | – | – | – | – | – | > 100 µM (inactive) | – | > 100 µM (inactive) | –
12 | CC(=O)C(=O)NC1/C=C(C)\C=C/C(O)C/C=C(C)\C=C/C(O)CC2OC(=O)C1(C)C(=O)C2C (stereo unspecified) | > 100 µM (inactive) | > 100 µM (inactive) | > 100 µM (inactive) | > 100 µM (inactive) | – | – | – | – | –
13 | CSc1nc(NC2OC(CO)C(O)C(O)C2O)c(N)c(=O)n1C (stereo unspecified) | > 100 µM (inactive) | > 100 µM (inactive) | > 100 µM (inactive) | > 100 µM (inactive) | – | – | – | – | –
14 | CC1(C)O[C@H]2OC(CO)C(OS(C)(=O)=O)[C@H]2O1 (stereo partly specified) | – | – | – | – | – | – | > 100 µM (inactive) | > 100 µM (inactive) | –
15 | COC(C/C(=C/CO[Si](C(C)C)(C(C)C)C(C)C)C(=O)N(C(=O)OC(C)(C)C)c1ccccc1I)OC | – | – | – | – | – | – | 83.4 µM (inactive) | 28.4 µM (inactive) | –
16 | CCCCN(CCCC)C(=O)C(=O)C(C(=O)C(=O)OC)c1nc2ccccc2o1 (stereo unspecified) | > 100 µM (inactive) | 54 µM (inactive) | > 100 µM (inactive) | > 100 µM (inactive) | > 100 µM (inactive) | – | – | > 100 µM (inactive) | 79.3 µM (inactive)
17 | CC(C)c1ccccc1SC1CC(=O)CC(Sc2ccccc2C(C)C)C12O[C@H](c1ccccc1)[C@@H](c1ccccc1)O2 (stereo partly specified) | – | – | – | – | – | 51.1 µM (inactive) | – | 18.1 µM (inactive) | –
18 | NCCCn1c(Cl)nc2ccccc21 | – | – | – | – | – | > 100 µM (inactive) | > 100 µM (inactive) | > 100 µM (inactive) | –
19 | CCC1CN2CCc3cc(OC)c(OC)cc3C2CC1CC1c2cc(OC)c(OC)cc2CCN1C(=O)C(N)Cc1ccccc1.[O-][Cl+3]([O-])([O-])O (stereo unspecified) | – | – | – | – | 1.67 µM (inactive) | – | – | – | 2.54 µM (inactive)
20 | CNC(=S)N/N=C(/C)CCC/C(C)=N/NC(=S)NC | – | – | – | – | – | > 100 µM (inactive) | > 100 µM (inactive) | – | –
21 | CSC(=S)N(C)c1nc(N(C)C)s[s+]1 | > 100 µM (inactive) | > 100 µM (inactive) | > 100 µM (inactive) | > 100 µM (inactive) | > 100 µM (inactive) | – | – | > 100 µM (inactive) | –
22 | O=C(O)CSc1nnc(/C=C/c2ccccc2)[nH]1 | > 92.7 µM (inactive) | > 64.3 µM (inactive) | > 100 µM (inactive) | > 100 µM (inactive) | > 100 µM (inactive) | – | – | > 100 µM (inactive) | –
23 | O=C1/C(=C/c2ccc(C(=O)O)cc2)CNC/C1=C\c1ccc(C(=O)O)cc1 | > 100 µM (inactive) | > 100 µM (inactive) | > 100 µM (inactive) | > 100 µM (inactive) | > 100 µM (inactive) | – | – | > 100 µM (inactive) | > 100 µM (inactive)
24 | C=C1CC(OC)(C(OC)C(=O)N(C)[C@H]2OCO[C@H]3C2O[C@H](C[C@@H](COC)OC)C(C)(C)C3OC)O[C@H](C)[C@@H]1C (stereo partly specified) | 25.5 µM (inactive) | 11.2 µM (inactive) | – | 12.2 µM (inactive) | – | – | – | – | –
25 | C[n+]1ccc(Nc2ccc(NC(=O)c3ccc(Nc4cc[n+](C)c5ccc([N+](=O)[O-])cc45)cc3[N+](=O)[O-])cc2)cc1 | 20.3 µM (inactive) | 1.05 µM (active) | 20 µM (inactive) | – | – | – | – | – | –
26 | CN1CCC(c2c(O)cc(O)c3c(=O)cc(-c4ccccc4Cl)oc23)C(O)C1 (stereo unspecified) | 0.102 µM (active) | – | – | 0.118 µM (active) | 0.0769 µM (active) | – | – | 0.0498 µM (active) | –
